Laboratory results published in PubChem BioAssay (NCI).
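Where inhibition never reached the appropriate level, the endpoint shown equals the highest concentration tested. Otherwise, values were interpolated linearly from a five-concentration, 48-hour dose response in 96-well plates. Definition used: TGI = concentration required for complete inhibition of growth.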

Experiments:
Experiment in all cases: NCI anticancer screen, dose series, 48 h
786-0 renal = test system: 786-0 renal
A498 renal = test system: A498 renal
A549 NSCLC = test system: A549 NSCLC
ACHN renal = test system: ACHN renal
BT-549 breast = test system: BT-549 breast
CAKI-1 renal = test system: CAKI-1 renal
CCRF-CEM leukemia = test system: CCRF-CEM leukemia
COLO 205 colon = test system: COLO 205 colon
DU-145 prostate = test system: DU-145 prostate
EKVX NSCLC = test system: EKVX NSCLC
HCC-2998 colon = test system: HCC-2998 colon
HCT-116 colon = test system: HCT-116 colon
HCT-15 colon = test system: HCT-15 colon
HL-60(TB) leukemia = test system: HL-60(TB) leukemia
HOP-62 NSCLC = test system: HOP-62 NSCLC
HOP-92 NSCLC = test system: HOP-92 NSCLC
HS 578T breast = test system: HS 578T breast
HT29 colon = test system: HT29 colon
IGROV1 ovarian = test system: IGROV1 ovarian
K-562 leukemia = test system: K-562 leukemia
LOX IMVI melanoma = test system: LOX IMVI melanoma
M14 melanoma = test system: M14 melanoma
MALME-3M melanoma = test system: MALME-3M melanoma
MCF7 breast = test system: MCF7 breast
MDA-MB-231 breast = test system: MDA-MB-231 breast
MDA-MB-435 = test system: MDA-MB-435
MDA-N = test system: MDA-N
NCI-H226 lung = test system: NCI-H226 lung
NCI-H23 lung = test system: NCI-H23 lung
NCI-H460 lung = test system: NCI-H460 lung
NCI-H522 lung = test system: NCI-H522 lung
NCI/ADR-RES ovarian = test system: NCI/ADR-RES ovarian
OVCAR-3 ovarian = test system: OVCAR-3 ovarian
OVCAR-5 ovarian = test system: OVCAR-5 ovarian
OVCAR-8 ovarian = test system: OVCAR-8 ovarian
PC-3 prostate = test system: PC-3 prostate
RPMI-8226 leukemia = test system: RPMI-8226 leukemia
RXF 393 renal = test system: RXF 393 renal
SF-268 CNS = test system: SF-268 CNS
SF-295 CNS = test system: SF-295 CNS
SF-539 CNS = test system: SF-539 CNS
SK-MEL-2 melanoma = test system: SK-MEL-2 melanoma
SK-MEL-28 melanoma = test system: SK-MEL-28 melanoma
SK-MEL-5 melanoma = test system: SK-MEL-5 melanoma
SK-OV-3 ovarian = test system: SK-OV-3 ovarian
SN12C renal = test system: SN12C renal
SNB-19 CNS = test system: SNB-19 CNS
SR leukemia = test system: SR leukemia
SW-620 colon = test system: SW-620 colon
TK-10 renal = test system: TK-10 renal
U251 CNS = test system: U251 CNS
UACC-257 melanoma = test system: UACC-257 melanoma
UACC-62 melanoma = test system: UACC-62 melanoma
UO-31 renal = test system: UO-31 renal

`CC(C)(C)C1CCC2c3c([nH]c4ccccc34)C3C(=O)N(c4ccc(C(=O)O)cc4)C(=O)C3C2C1` (centres undefined) showed a TGI (786-0 renal) of 29.1 µM, a TGI (A498 renal) of 34.6 µM and a TGI (A549 NSCLC) of 25.8 µM. For the same molecule, the TGI (ACHN renal) was 24.5 µM, the TGI (BT-549 breast) was 30.1 µM and the TGI (CAKI-1 renal) was 31 µM. For the same molecule, the TGI (CCRF-CEM leukemia) was 12.5 µM, the TGI (COLO 205 colon) was 40.4 µM and the TGI (DU-145 prostate) was 34.7 µM. The TGI (EKVX NSCLC) was 39.7 µM, the TGI (HCC-2998 colon) was 29 µM and the TGI (HCT-116 colon) was 29.7 µM. It also gave a TGI (HCT-15 colon) of 25 µM, a TGI (HL-60(TB) leukemia) of 15.4 µM and a TGI (HOP-62 NSCLC) of 15.8 µM. The TGI (HOP-92 NSCLC) was 25.7 µM, the TGI (HS 578T breast) was 39 µM and the TGI (HT29 colon) was 28.7 µM. It also gave a TGI (IGROV1 ovarian) of 40.1 µM, a TGI (K-562 leukemia) of 17.9 µM and a TGI (LOX IMVI melanoma) of 28.8 µM. For the same molecule, the TGI (M14 melanoma) was 37.3 µM, the TGI (MALME-3M melanoma) was 28.9 µM and the TGI (MCF7 breast) was 26.4 µM. It also gave a TGI (MDA-MB-231 breast) of 29.2 µM, a TGI (MDA-MB-435) of 11.1 µM and a TGI (MDA-N) of 24.7 µM. For the same molecule, the TGI (NCI-H226 lung) was 40.3 µM, the TGI (NCI-H23 lung) was 40.8 µM and the TGI (NCI-H460 lung) was 35.4 µM. For the same molecule, the TGI (NCI-H522 lung) was 41.6 µM, the TGI (NCI/ADR-RES ovarian) was 36 µM and the TGI (OVCAR-3 ovarian) was 25.8 µM. The TGI (OVCAR-5 ovarian) was 36.5 µM, the TGI (OVCAR-8 ovarian) was 26.6 µM and the TGI (PC-3 prostate) was 26.3 µM. For the same molecule, the TGI (RPMI-8226 leukemia) was > 100 µM, the TGI (RXF 393 renal) was 29.5 µM and the TGI (SF-268 CNS) was 28.4 µM. It also gave a TGI (SF-295 CNS) of 23.4 µM, a TGI (SF-539 CNS) of 34.8 µM and a TGI (SK-MEL-2 melanoma) of 29.1 µM. For the same molecule, the TGI (SK-MEL-28 melanoma) was 30.3 µM, the TGI (SK-MEL-5 melanoma) was 25.7 µM and the TGI (SK-OV-3 ovarian) was 32.1 µM. For the same molecule, the TGI (SN12C renal) was 25.6 µM, the TGI (SNB-19 CNS) was 34.6 µM and the TGI (SR leukemia) was > 100 µM. The TGI (SW-620 colon) was 26.5 µM, the TGI (TK-10 renal) was 31.3 µM and the TGI (U251 CNS) was 26.2 µM. It also gave a TGI (UACC-257 melanoma) of 28.3 µM, a TGI (UACC-62 melanoma) of 30.4 µM and a TGI (UO-31 renal) of 30.4 µM.
